Drawing on publication PMC8969151 (2022), this text covers binding for 2 molecules.

What all share (test): in vitro transcription antitermination dose-response (E. coli RNAP)
Test [1] has as its system Cba ppGpp riboswitch (native, leader-less; PRA1_Cba2-2_dRP1) (RNA, riboswitch) AUAAUAAGAGAGUGUAUCUAGGGUUCCGGUCAAUAGAUGUCUGGUCCGAGCGAUACAGGAUUUCAAUCUACACUUUUAGGAAAAAAGCCUAAAGGACGAGUCUCUGCAAAGAGAUUUGUUCUUGGGCUUUAUUUUUUUAUCUUUAUUUAAGAUCGUCGGACUGUAGAACUCUGAACGUGUAGAUCUCGGUGGUCGCCGUAUCAUU
Particulars: 50 mM KCl, 10 mM MgCl2; 20 mM Tris-HCl pH 8.0, 37 °C, 500 μM NTPs, NusA only stated for leader assay; readthrough fold-change 1.9.

Test [2] has as its system Cba ppGpp riboswitch with C3-SC1 leader (PRA1_Cap3_SC1_Cba2-2_dRP1) (RNA, riboswitch) AUUCGGUGCUCUUCUCUUCGGCCUUCGGGCCAAAAUAAGAGAGUGUAUCUAGGGUUCCGGUCAAUAGAUGUCUGGUCCGAGCGAUACAGGAUUUCAAUCUACACUUUUAGGAAAAAAGCCUAAAGGACGAGUCUCUGCAAAGAGAUUUGUUCUUGGGCUUUAUUUUUUUAUCUUUAUUUAAGAUCGUCGGACUGUAGAACUCUGAACGUGUAGAUCUCGGUGGUCGCCGUAUCAUU
Particulars: 50 mM KCl, 10 mM MgCl2; 20 mM Tris-HCl pH 8.0, 37 °C, 500 μM NTPs, NusA; readthrough fold-change 6.0.

The test system of test [3] is pfl ZTP riboswitch with C3-SC1 leader (PRA1_Cap3_SC1_CbePfl_dRP1) (RNA, riboswitch) AUUCGGUGCUCUUCUCUUCGGCCUUCGGGCCAAAUUAGAUAUUAGUCAUAUGACUGACGGAAGUGGAGUUACCACAUGAAGUAUGACUAGGCAUAUUAUCUUAUAUGCCACAAAAAGCCGACCGUCUGGGCAAAAAAAGCCUGGAUUGCGUCGGCUUUUUUAUAUGGAAAAGAUCGUCGGACUGUAGAACUCUGAACGUGUAGAUCUCGGUGGUCGCCGUAUCAUU
Conditions: 50 mM KCl, 10 mM MgCl2; 20 mM Tris-HCl pH 8.0, 37 °C, 500 μM NTPs; up to 1 mM ZMP; readthrough fold-change 7.1.

Test [4] has as its system pfl ZTP riboswitch (native, leader-less; PRA1_CbePfl_dRP1) (RNA, riboswitch) AUAUUAGAUAUUAGUCAUAUGACUGACGGAAGUGGAGUUACCACAUGAAGUAUGACUAGGCAUAUUAUCUUAUAUGCCACAAAAAGCCGACCGUCUGGGCAAAAAAAGCCUGGAUUGCGUCGGCUUUUUUAUAUGGAAAAGAUCGUCGGACUGUAGAACUCUGAACGUGUAGAUCUCGGUGGUCGCCGUAUCAUU
Conditions: 50 mM KCl, 10 mM MgCl2; 20 mM Tris-HCl pH 8.0, 37 °C, 500 μM NTPs; up to 1 mM ZMP; readthrough fold-change 3.6.

Turning to `Nc1nc2c(ncn2[C@@H]2O[C@H](COP(=O)(O)OP(=O)(O)O)[C@@H](OP(=O)(O)OP(=O)(O)O)[C@H]2O)c(=O)[nH]1`, the binding result in test [1] and in test [2] was “yes” throughout.
Turning to `NC(=O)c1ncn([C@@H]2O[C@H](COP(=O)(O)O)[C@@H](O)[C@H]2O)c1N`, the binding entry in test [3] and in test [4] was “yes” in each case.
